Assay results from patent US10800816B2 (Baxalta GmbH, priority 2012, dated 2020).
pEC50, pIC50, pKd: −log10 of the molar value. Where a SMILES comes first, the peptide text is derived from it. Bridges are numbered along the chain shown (N, C = ends). [ ]: non-standard residue; d: D form. Tle = CC(C)(C)[C@H](N)C(=O)O; hCys = N[C@@H](CCS)C(=O)O; Aib = CC(C)(N)C(=O)O

What was measured:
[1] = test system: Tissue Factor Pathway Inhibitor (TFPI); assay: IC50 ELISA | Mean IC50 [nM]
[2] = test system: Tissue Factor Pathway Inhibitor (TFPI); assay: IC50 ELISA | Mean IC50 [nM]; remark: listed apart in the source
human TFPI-1 = biological target: T1, human TFPI-1 (Homo sapiens, UniProt P10646); assay: BIAcore surface plasmon resonance, immobilized human TFPI-1; type: binding; details: Table 6
T1 construct: human TFPI-1 (residues 29-282 fused at the C-terminus to a 10 His-tag); purchased R&D Systems 2974-PI
T1 sequence (P10646 29-282): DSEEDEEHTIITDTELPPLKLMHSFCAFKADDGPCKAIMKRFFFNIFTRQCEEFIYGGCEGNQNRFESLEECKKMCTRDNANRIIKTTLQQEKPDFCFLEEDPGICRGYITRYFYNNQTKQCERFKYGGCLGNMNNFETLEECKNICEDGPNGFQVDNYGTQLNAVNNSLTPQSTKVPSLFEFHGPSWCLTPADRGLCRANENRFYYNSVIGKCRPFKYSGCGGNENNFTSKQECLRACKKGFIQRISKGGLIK

TFPI = assay: FXa inhibition assay (human TFPI); details: read-out: FXa Inhibition Assay EC50; Table 7 and text b402
[3] = test system: Tissue Factor Pathway Inhibitor (TFPI); assay: IC50 ELISA | IC50 [nM]
From the text: Table printed on a drawing sheet, FIGURE 78S
(§1) Head of the field: IC50 ELISA | IC50 [nM]

[4] = test system: Tissue Factor Pathway Inhibitor (TFPI); assay: IC50 ELISA | IC50 [nM]; remark: listed apart in the source
From the text: Table printed on a drawing sheet, FIGURE 78U
as §1

fl-TFPI / ASGPR = biological target: T2, fl-TFPI / ASGPR (Homo sapiens, UniProt P10646); assay: BIAcore: fl-TFPI binding to ASGPR in presence of peptide; details: 1 μM peptide
T2 sequence (P10646 29-304): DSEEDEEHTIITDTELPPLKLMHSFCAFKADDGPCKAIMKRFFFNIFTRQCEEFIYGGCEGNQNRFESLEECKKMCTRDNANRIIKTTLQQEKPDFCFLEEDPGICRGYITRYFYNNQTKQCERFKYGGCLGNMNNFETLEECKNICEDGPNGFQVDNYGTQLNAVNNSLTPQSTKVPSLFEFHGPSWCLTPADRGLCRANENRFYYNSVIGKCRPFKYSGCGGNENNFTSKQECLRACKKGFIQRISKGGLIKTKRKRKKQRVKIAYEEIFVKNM

FVIII-deficient mice = assay: Puncture-induced hemarthrosis in FVIII-deficient mice; type: in vivo, mouse; details: 1 mg/kg i.v.
Procedure: After each product administration, the right knee joint capsule was punctured with a 30 gauge needle to induce hemorrhage. Animals were sacrificed three days following injury, and bleeding was assessed via gross and histological methods. […] Summary bleeding scores (SBS), which include visual and histological bleeding scores, were assigned to each joint. […] The results described herein further confirm that peptides of the invention provide a prophylactic or protective effect against bleeding in an in vivo model of hemophilia A.

FIX knock-out mice = assay: Tail-tip bleed model in FIX knock-out mice; type: in vivo, mouse; details: 1 mg/kg JBT2329 alone
Procedure: JBT2329 also was tested in a FIX knock-out tail-tip bleed mouse model, which is a clinically-relevant model for hemophilia B human patients. The methodology was substantially similar to that described above with respect to the FVIII knock-out model. Instead of ADVATE, a recombinant FIX (rFIX) served as a reference. Median total blood loss in buffer-treated animals was 935 mg. Median total blood loss in animals treated with a murine anti-TFPI antibody (maTFPI) was 774 mg. Median total blood loss was reduced further when the animals received combined treatment of maTFPI and rFIX.

[5] = 24 h
[6] = mouse, 24 h
[7] = test system: FVIII-inhibited whole blood; assay: Rotation thromboelastography (ROTEM) in whole blood; design: species or system human; details: Hem A / FVIII-inhibited human whole blood
Procedure: Continuous visco-elastic assessment of human whole blood clot formation and firmness was performed by rotation thromboelastography with whole blood preparations in the presence or absence of peptides. […] Test samples were prepared by dissolving quantities of peptides in either DMSO or HEPES buffered saline (with or without 0.1% Tween 80).
Recordings were made using a ROTEM thromboelastography coagulation analyzer (Pentapharm, Munich, Germany) at 37° C. Briefly, blood is added into a disposable cuvette in a heated cuvette holder. A disposable pin (sensor) is fixed on the tip of a rotating axis. The axis is guided by a high precision ball bearing system and rotates back and forth. The axis is connected with a spring for the measurement of elasticity. The exact position of the axis is detected by the reflection of light on a small mirror on the axis. The loss of elasticity when the sample clots leads to a change in the rotation of the axis. The data obtained are computer analyzed and visualized in a thromboelastogram. […] An elasticity of approximately zero is observed before clot formation begins. Mirror image traces above and below the zero line indicate the effect of clot formation on the rotation of the axis.
The analytical set-up was as follows: to 20 μL of test sample or control, 300 μL of pre-warmed (37° C.) CTI treated citrated whole blood was added, followed by 20 μL of a 1:15 dilution of TF PRP reagent containing recombinant human tissue factor (rTF, 3 pM) (TS40, Thrombinoscope BV, Maastricht, The Netherlands). Coagulation was initiated by the addition of 20 μ200 mM CaCl2 (star-TEM®, Pentapharm, Munich, Germany) and recordings were allowed to proceed for at least 120 min. The final concentration of rTF in the assay was 11 or 44 fM.
The thromboelastographic parameters of clotting time (CT), clot formation time (CFT) and maximum clot firmness (MCF) were recorded in accordance with the manufacturer's instructions. CT is defined as the time from the start of measurement to the start of clot formation. CFT is defined as the time from the start of clot formation until an amplitude of 20 mm is reached. MCF is the maximum difference in amplitude between the two traces during the assay. The first derivative of the data of the thromboelastogram are plotted to obtain a graph of velocity (mm/s) against time (s). From this graph, the maximum velocity (maxV) is determined. The time at which the maximum velocity is obtained (maxV-t) is also determined.
This example describes a method for assessing clot formation in whole blood using rotation thromboelastography (ROTEM). The assay was performed as described in Example 8. The analytical set-up was as follows: 300 μL of pre-warmed (37° C.) CTI treated citrated whole blood was added to a peptide sample (10, 100, 1000 nM final assay concentration) or a control, followed by addition of a 1:15 dilution of TF PRP reagent containing recombinant human tissue factor (rTF, 3 pM) (TS40, Thrombinoscope BV, Maastricht, The Netherlands). In certain experiments, exogenous full length TFPI (flTFPI) at final concentrations of 2 or 10 nM was added to simulate flTFPI plasma levels of up to 50-fold over normal. Coagulation was initiated by the addition of 20 μL 200 mM CaCl2 (star-TEM®, Pentapharm, Munich, Germany) and recordings were allowed to proceed for at least 120 min. The final concentration of rTF in the assay was 44 fM. The thromboelastographic parameters of clotting time (CT), clot formation time (CFT) and maximum clot firmness (MCF) were recorded in accordance with the manufacturer's instructions. CT is defined as the time from the start of measurement to the start of clot formation. CFT is defined as the time from the start of clot formation until an amplitude of 20 mm is reached. MCF is the maximum difference in amplitude between the two traces during the assay.

[8] = Pharmacokinetics in C57Bl6 mice; type: in vivo, mouse; details: 1 mg/kg peptide content
C57Bl/6NCrl mice = assay: Nail clip bleeding study in mice; type: in vivo, mouse
fl-TFPI / LRP = biological target: T3, fl-TFPI / LRP (Homo sapiens, UniProt P10646); assay: BIAcore: fl-TFPI binding to LRP in presence of peptide; details: 1 μM peptide, 10 nM fl-TFPI
T3 sequence (P10646 29-304): T2 sequence (P10646 29-304)
T3 sequence (Q07954 852-1182 partner limits assumed): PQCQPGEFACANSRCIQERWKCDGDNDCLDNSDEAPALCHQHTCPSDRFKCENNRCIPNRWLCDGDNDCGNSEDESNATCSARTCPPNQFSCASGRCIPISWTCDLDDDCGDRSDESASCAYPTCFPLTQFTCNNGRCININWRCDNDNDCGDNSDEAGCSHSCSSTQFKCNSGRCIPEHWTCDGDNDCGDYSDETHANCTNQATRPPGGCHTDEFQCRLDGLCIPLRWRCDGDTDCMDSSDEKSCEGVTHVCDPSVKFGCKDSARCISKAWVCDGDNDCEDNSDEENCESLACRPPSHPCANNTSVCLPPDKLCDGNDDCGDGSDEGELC

FVIII knock-out mice = details: 1 mg/kg without ADVATE
[9] = test system: Tissue Factor Pathway Inhibitor (TFPI); assay: IC50 ELISA | Mean IC50 [nM]; remark: listed apart in the source
[10] = 0.1 mg/kg i.v., first 30 minutes
[11] = 0.1 mg/kg i.v., second 30 minute period

CC(=O)N[C@@H](Cc1ccccc1)C(=O)N[C@@H](CCC(N)=O)C(=O)N[C@@H](CO)C(=O)N[C@@H](CCCCN)C(=O)N1CCC[C@@H]1C(=O)N[C@@H](CC(N)=O)C(=O)N[C@H](C(=O)N[C@@H](Cc1c[nH]cn1)C(=O)N[C@H](C(=O)N[C@@H](CC(=O)O)C(=O)N[C@@H]1CSSCC[C@@H](C(=O)N[C@@H](CCCNC(=N)N)C(=O)N[C@@H](CC(C)C)C(=O)NC(C)(C)C(=O)N[C@@H](C)C(=O)N[C@@H](CCCCN)C(=O)N[C@@H](CC(C)C)C(N)=O)NC(=O)[C@H](Cc2ccccc2)NC(=O)[C@H](Cc2ccc(O)cc2)NC1=O)C(C)(C)C)C(C)C [JBT00002494, Ac-FQSKpNVH-Tle-D[cYF-Hcy-]RL-Aib-AKL-NH2] (Ac-FQSK[dP]NVH[Tle]D[dC]YF[hCys]RL[Aib]AKL-NH2; disulfide 11-14)
pIC50 [1]: 8.55

Ac-FQ-Ede(O)-KpNVH-Tle-DaYFERL-Aib-AKL-NH2 [JBT00002453]
pIC50 [2]: 8.10

Ac-FQSKNNVFVFGYFERLRAKL-NH2 [JBT0297]
pKd (human TFPI-1): 7.54
pEC50 (TFPI): 6.22

Ac-FQSKpNVH-Tle-DaYFERL-Aib-A-Opc-L-NH2 [JBT00002447]
pIC50 [3]: < 6.30

Ac-FQSKpNVH-Tle-DaYF[-Hcy-RL-Aib--Hcy-]KL-NH2 [JBT00002489]
pIC50 [4]: < 6.30

Ac-FQSKpNVHVDGYFERL-Aib-AKLC(PEG)-NH2 [JBT2329] (FQSKPNVHVDGYFERLXAKLC; acetyl, D-Pro, Aib, Cys-PEG 41.5 kD, amide; MOD_RES (1)..(1): N-terminal acetylation; MOD_RES (5)..(5): D-Pro; MOD_RES (17)..(17): Xaa is 2-amino-isobutyric acid; MOD_RES (21)..(21): Cys-PEG; MOD_RES (21)..(21): C-terminal amidation)
fl-TFPI interaction with ASGPR in presence of peptide (fl-TFPI / ASGPR): diminished the ASGPR-fl-TFPI interaction
protective effect on joint bleeding (summary bleeding score) (FVIII-deficient mice): significantly greater than the effect of 10 IU/kg ADVATE, but less than 100 IU/kg ADVATE
effect on median total blood loss (FIX knock-out mice): did not lead to a significant reduction in median total blood loss
Human Plasma Stability, 24 hour (%) [5]: 67.3%
percentage of initial amount of peptide remaining in plasma [6]: ≥ 60%
coagulation parameters [7]: restored prolonged coagulation parameters in Hem A blood
HL_λ_z [h] (intravenous) ([8]; intravenous): 19.8 h
Bioavailability [%] (s.c.) ([8]; s.c. AUC vs i.v. AUC): 73.3%
reduction of total blood loss compared to vehicle (C57Bl/6NCrl mice; 0.1 mg/kg i.v., 60 minutes): ~60%
mean blood loss (C57Bl/6NCrl mice; 0.1 mg/kg i.v., 60 minutes total): 34.7 µL
mean blood loss (C57Bl/6NCrl mice; [10]): 16.0 µL
reduction of blood loss compared to vehicle (C57Bl/6NCrl mice; [10]): about 50%
mean blood loss (C57Bl/6NCrl mice; [11]): 18.7 µL
reduction of blood loss compared to vehicle (C57Bl/6NCrl mice; [11]): about 64%
mean blood loss (C57Bl/6NCrl mice; 1.0 mg/kg i.v., entire 60 minutes): 22.8 µL
mean blood loss (C57Bl/6NCrl mice; 1.0 mg/kg i.v., first 30 minutes): 12.2 µL
mean blood loss (C57Bl/6NCrl mice; 1.0 mg/kg i.v., second 30 minute period): 10.6 µL
reduction of blood loss compared to vehicle (C57Bl/6NCrl mice; 10 mg/kg subcutaneous, 60 minutes): approximately 58%
fl-TFPI interaction with LRP in presence of peptide (fl-TFPI / LRP): slight decrease in fl-TFPI LRP interaction
effect on median total blood loss (FVIII knock-out mice): did not reduce median total blood loss over that observed in buffer-treated animals

Ac-FQSKpNVHVDGYFERL-Aib-AKLK(AOA-40kDa PSA)- NH2 [JBT00002430]
pIC50 [9]: 7.81
